From US11891455B2, “Polymorph form of (r)-2-[2-amino-3-(indol-3-yl)propionylamino]-2- methylpropionic acid and uses thereof” (Galimedix Therapeutics Inc., priority 2019, dated 2024)
Peptide text beside a SMILES is read from it.

Tests used:
Assay type in all cases: physicochemical
[1] = Transition of Form II to Form I followed by X-ray powder diffraction
Protocol: X-ray powder diffraction (XRPD) patterns were obtained in a Philips model PW 3710 based PW 1050 Bragg-Brentano parafocusing goniometer using CuKa radiation (l=0.15418 nm), graphite monochromator and proportional counter. The XRD scans were digitally recorded in the […] of 3-35deg with a step size of 0.04deg.
Form II was measured at 20-25° C. (long dashed line), then heated at 30-35 for 15 minutes (solid line), then another 60 minutes (dotted line) (FIG. 2). Form I was also measured (short dashed line). According to the measurements, Form II is highly crystalline and strongly oriented (it forms large plates).
The transition of Form II (dark grey line) to Form I (black line) was complete at 50-60° C. within 30 minutes (FIG. 3). The reference diffractogram of Form I is shown in grey.

[2] = Microscopy study of the transition of Form II to Form I; conditions: 30-35° C., polarized light microscope
Protocol: Transition of wet Form II to Form I was observed through a MOTIC BA300 microscope (as shown in FIGS. 6-10) under polarized light. The transition from wet Form II to Form I proceeded rapidly. The large Form II crystals transformed to small crystals at 30-35° C. within 2 minutes. The crystals of Form II are large plates. The observed crystal form explains the observed thixotropic property of the suspension of Form II. Form I consists of uniform rounded crystals.

[3] = Solubility test in water (visual check); conditions: for solubility in water (in words): visual check
Protocol: To a three necked 1 L flask equipped with stirrer and thermometer, 60.0 g (207.4 mmol) of (R)-2-[2-amino-3-(indol-3-yl)propionylamino]-2-methylpropionic acid, which is as synthesized by methods as described herein, e.g., at Examples 6 and 11, or by the method as previously described in U.S. Patent Application Publication No. 2006/0234947, was added to a mixture of 167.0 mL of water and 21.0 mL of concentrated hydrochloric acid, resulting in the formation of a yellowish brown solution. The pH of the solution was set to 5.6 with 53.0 mL of a 20% NaOH solution at 0-5° C. About 30 minutes later, the crystallization started at 0-5° C. The suspension was stirred overnight at 0-5° C. The suspension was filtered on a pre-chilled funnel. As an in-process control, the solubility of a part of the filter cake in water was checked. […] Form II of (R)-2-[2-Amino-3-(indol-3-yl)propionylamino]-2-methylpropionic acid was isolated and dried at 0-5° C. over P2O5.
To a three necked 6 L flask equipped with overhead stirrer, thermometer, and pH meter, 1189.0 g of wet […] from Step 1 was dissolved in a mixture of 1715.0 mL of water and 250.0 mL of concentrated HCl. The mixture was stirred at 5-10° C. and the pH of the solution was adjusted to 5.6 with 665.0 mL of a 20% NaOH solution maintaining the temperature at 5-10° C. After 30 minutes of stirring, the crystallization began. The resulting suspension was stirred at 0-5° C. overnight. The precipitate was collected by filtration. This collected Form II was suspended in 1.2 L of water and heated to 30-35° C. for two hours. At the beginning, the solid partly dissolved, then precipitated again. […] The suspension was cooled to room temperature (20-25° C.), filtered and washed with 400 mL and 800 mL of water, subsequently then dried at 60-65° C. to constant weight.

[4] = Transition of Form II to Form I / product stability as a function of temperature
Protocol: At a higher temperature (e.g., 40-50° C.) significant degradation of the product is observed. Further, the isolated yield (45%-50% instead of 60%) and the efficiency of the purification are slightly lower (98.9 area %) at −5° C. than at 0-5° C. […] During the filtration step, the thick suspension could be warmed up and partly dissolves Form II of the compound and decreases the yield.
The complete transition from GAL-101 Form II to GAL-101 Form I is detected at room temperature (20-25° C.) within 15 minutes. The transition can start at above 10° C. The transition can be followed by microscope, the large metastable crystals transform to small crystals within a few minutes at ambient temperature (FIGS. 6-14).

SMILES | time to complete transition of Form II to Form I (XRPD) ([1]; 50-60° C.) | conversion of Form II to Form I in dry state (XRPD) ([1]; dry state, 30-35° C.) | time for large Form II crystals to transform to small crystals (wet Form II to Form I) [2] | water needed to dissolve (water solubility) ([3]; room temperature) | solubility in water (in words) [3] | solubility in water (in words) ([3]; listed as form II) | temperature above which the transition Form II to Form I can start [4] | speed of transformation to Form I (in words) ([4]; above 30° C.) | time to complete transition from Form II to Form I ([4]; room temperature (20-25° C.)) | solubility in water (in words) ([3]; listed as Form I)
CC(C)(NC(=O)[C@H](N)Cc1c[nH]c2ccccc12)C(=O)O [GAL-101 Form II, (R)-2-[2-amino-3-(indol-3-yl)propionylamino]-2-methylpropionic acid] (HELM PEPTIDE1{[dW].[Aib]}$$$$V2.0) | ≤ 30 min | converts gradually to Form I | ≤ 2 min | about 4 volumes of water | high water solubility | Immediately dissolving | above 10 °C | very rapidly | ≤ 15 min | 
CC(C)(NC(=O)[C@H](N)Cc1c[nH]c2ccccc12)C(=O)O [GAL-101 Form I, (R)-2-[2-amino-3-(indol-3-yl)propionylamino]-2-methylpropionic acid] (HELM PEPTIDE1{[dW].[Aib]}$$$$V2.0) |  |  |  |  |  |  |  |  |  | almost insoluble in water
